Results from patent US20110065760A1, “COMPOUNDS FOR THE INHIBITION OF ROTAMASES AND USE THEREOF” (Jerini AG, priority 2002, published 2011).
Like-named read-outs stand apart in the source and are kept apart here.

Assays:
hPin1 = hPin1 (Homo sapiens, UniProt Q13526); assay: protease-coupled PPIase assay, hPin1; format: biochemical; settings: 6 nM hPin1, substrate Ac-Ala-Ala-Ser(PO3H2)-Pro-Arg-pNA, trypsin, pH 7.8, 6° C.; read-out: IC50 class, Target T-1 (hPin1)
hFKBP12 = hFKBP12 (Homo sapiens, UniProt P62942); assay: protease-coupled PPIase assay, hFKBP12; format: biochemical; settings: 20 nM hFKBP12, substrate Suc-Ala-Phe-Pro-Phe-pNA, chymotrypsin, pH 7.8, 6° C.; read-out: IC50 class, Target T-2 (hFKBP12)
hCyp18 = hCyp18 (Homo sapiens, UniProt P62937); assay: protease-coupled PPIase assay, hCyp18; format: biochemical; settings: 10 nM hCyp18, substrate Suc-Ala-Phe-Pro-Phe-pNA, chymotrypsin, pH 7.8, 6° C.; read-out: IC50 class, Target T-3 (hCyp18)
LpCyp18 = LpCyp18 (Legionella pneumophila, UniProt Q5ZRZ4); assay: biochemical; settings: IC50 class, Target T-4 (LpCyp18)
EcParvulin = EcParvulin (Escherichia coli, UniProt P0A9L5); assay: protease-coupled PPIase assay, EcParvulin; format: biochemical
Papain = target: T1, Papain (Carica papaya, UniProt P00784); assay: papain assay; format: biochemical; settings: 16 μg/ml papain, 2 mM Bz-DL-Arg-pNA, pH 6.5, 30° C., 30 min incubation; read-out: IC50 class, Target T-6 (Papain)
T1 sequence (P00784 134-345): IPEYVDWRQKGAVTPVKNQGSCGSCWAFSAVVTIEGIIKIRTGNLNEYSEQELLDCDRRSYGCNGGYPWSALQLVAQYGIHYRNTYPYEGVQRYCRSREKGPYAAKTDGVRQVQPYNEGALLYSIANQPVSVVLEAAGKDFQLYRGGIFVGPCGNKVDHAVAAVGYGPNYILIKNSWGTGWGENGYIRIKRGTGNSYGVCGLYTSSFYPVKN
Procedure: In order to investigate the impact of some of the inventive compounds on the activity of key proteases the following assay was performed: Protease activities were measured spectrophotometrically at 30° C. according to Schomburg and Salzmann (Schomburg, B.; Salzmann M. GBF: Enzyme Handbook. Springer Verlag, Berlin Heidelberg, 1991) and Bergmeyer et al. (Bergmeyer, H. U.; Bergmeyer, J.; Graβl, M. Methods of Enzymatic Analysis, Vol. V Enzymes 3: Peptides, Proteinases and Their Inhibitors. pp 55-371, VCH, Weinheim, 1988). The release of 4-nitroaniline was determined at 390 nm with a Spectramax Plus UV/Vis spectrophotometer (Molecular Devices). The cathepsin B assay was performed in a reaction mixture containing 0.2 μg/ml cathepsin B, 2 mM Z-Arg-Arg-pNA in 88 mM KH2PO4, 12 mM Na2HPO4, 1.33 mM EDTA, 0.03% Brij 35 (pH 5.8). The trypsin assay was carried out in a reaction mixture containing 0.1 μg/ml trypsin and 120 μM Ac-Ala-Ala-Ser(PO3H2)-Pro-Arg-pNA in 35 mM HEPES (pH 7.8) and the papain assay in a mixture consisting of 16 μg/ml papain and 2 mM Bz-DL-Arg-pNA in 10 mM Na2HPO4, 2 mM L-Cys, 5 mM EDTA (pH 6.5). In general, reactions were started by addition of peptide substrate after a 30 min incubation of 1-100 μM effector with given concentrations of enzyme.

[1] = WST-1 cytotoxicity assay, HL-60; format: cell-based; settings: human, HL-60 cells (acute myeloid leukemia); WST-1, 48 h incubation; read-out: EC50 class, cytotoxic effect, CL-1 (HL-60)
Procedure: For this cytotoxic evaluation of the compounds the commercial available WST-1 assay (Roche) was used according to the manufacturer's instructions. The assay is based on the cleavage of the tetrazolium salt WST-1 by mitochondrial dehydrogenases found in viable cells. In general compounds were added to cells cultured in 96-well plates at 37° C. After 48 h of incubation 10 μl of WST-1 solution was added. The formazan dye was analyzed with an ELISA plate reader at (450 vs. 620) nm. CL-1: human acute myeloid leukemia, HL-60 CL-2: human cervix carcinoma, HeLa CL-3: human prostate carcinoma, PC-3 CL-4: human colon adenocarcinoma, Caco-2 CL-5: human breast adenocarcinoma, MCF-7

[2] = 20 nM EcParvulin, substrate Suc-Ala-Phe-Pro-Phe-pNA, chymotrypsin, pH 7.8, 6° C., read-out: IC50 class, Target T-5 (EcParv)

hFKBP12, sequence (P62942 whole entry): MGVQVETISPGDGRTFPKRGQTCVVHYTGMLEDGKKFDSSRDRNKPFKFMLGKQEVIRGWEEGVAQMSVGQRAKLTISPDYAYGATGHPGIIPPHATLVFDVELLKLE
hCyp18, sequence (P62937 whole entry): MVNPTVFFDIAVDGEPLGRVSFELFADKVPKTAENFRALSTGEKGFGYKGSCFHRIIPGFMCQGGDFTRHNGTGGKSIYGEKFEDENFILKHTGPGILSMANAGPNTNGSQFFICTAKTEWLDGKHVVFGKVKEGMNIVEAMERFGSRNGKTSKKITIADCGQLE
LpCyp18, sequence (Q5ZRZ4 1-164): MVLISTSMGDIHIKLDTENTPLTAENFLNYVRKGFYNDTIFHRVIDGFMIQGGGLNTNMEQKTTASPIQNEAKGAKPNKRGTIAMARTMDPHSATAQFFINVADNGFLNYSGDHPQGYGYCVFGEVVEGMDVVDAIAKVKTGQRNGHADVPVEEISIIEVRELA
hPin1, sequence (Q13526 whole entry): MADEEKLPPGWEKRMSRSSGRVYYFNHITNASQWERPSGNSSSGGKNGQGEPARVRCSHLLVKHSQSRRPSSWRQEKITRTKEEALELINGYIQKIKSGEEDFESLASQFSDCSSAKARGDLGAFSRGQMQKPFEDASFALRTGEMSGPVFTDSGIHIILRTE
EcParvulin, sequence (P0A9L5 whole entry): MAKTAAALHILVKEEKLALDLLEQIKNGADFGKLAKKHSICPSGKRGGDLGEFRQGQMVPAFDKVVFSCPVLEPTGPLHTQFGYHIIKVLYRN

Structure (SMILES) | IC50 (hPin1) [nM] | IC50 (hFKBP12) [µM] | IC50 (hCyp18) [µM] | IC50 (LpCyp18) [µM] | IC50 (EcParvulin) [µM] | IC50 (Papain) [µM] | IC50 (EcParvulin; [2]) [µM] | EC50 at 48 h [1] [µM]
CC(C)(C)NC(=O)Nc1cc(Cl)cc(Cl)c1O [Compound 31] | < 1000 |  |  |  |  |  |  | 
Cc1c(Cl)cc(NC(=O)NC23CC4CC(CC(C4)C2)C3)c(O)c1Cl [Compound 118] | 1000 to 10000 | 50 to 100 | 10 to 50 | 10 to 50 | 1 to 10 | > 100 |  | 
Cc1c(Cl)cc(NC(=O)Nc2ccccc2)c(O)c1Cl [Compound 120] | 10000 to 50000 | 50 to 100 | 10 to 50 | > 100 |  |  |  | 
CC(C)(C)CC(C)(C)NC(=O)Nc1cc(Br)cc(F)c1O [Compound 126] | < 1000 |  |  |  |  |  |  | 
CC(C)(C)NC(=O)Nc1cc(Br)cc(F)c1O [Compound 127] | 1000 to 10000 |  |  |  |  |  |  | 
O=C(Nc1cc(Br)cc(F)c1O)NC12CC3CC(CC(C3)C1)C2 [Compound 142] | < 1000 |  |  |  |  |  |  | 
Cc1c(Cl)cc(NC(=S)NC(C)(C)CC(C)(C)C)c(O)c1Cl [Compound 257] | < 1000 |  |  |  |  |  |  | 
Cc1c(Cl)cc(NC(=S)Nc2ccccc2C(F)(F)F)c(O)c1Cl [Compound 266] | < 1000 | > 100 | > 100 | > 100 |  |  | 1 to 10 | 
Oc1c(Cl)cccc1NCc1ccccc1Sc1ccc(Cl)cc1 [Compound 343] | 1000 to 10000 | > 100 | 10 to 50 | > 100 | > 100 | > 100 |  | 
Cc1c(Cl)cc(NCc2ccccc2Sc2ccc(Cl)cc2)c(O)c1Cl [Compound 371] | < 1000 | > 100 | 10 to 50 | > 100 | 10 to 50 | > 100 |  | 
Oc1c(F)cc(Br)cc1NCc1ccccc1Sc1ccc(Cl)cc1 [Compound 385] |  |  |  |  |  | > 100 |  | 
O=[N+]([O-])c1ccc(Sc2ccccc2CNc2ccc(F)c(F)c2O)cc1 [Compound 400] | < 1000 |  |  |  |  |  |  | 
CCc1c(Cl)cc(NCc2ccccc2Sc2ccc(Cl)cc2)c(O)c1Cl [Compound 441] | 1000 to 10000 | > 100 | 10 to 50 | > 100 | > 100 | > 100 |  | 
Oc1c(Cl)cc(Cl)cc1NCc1cccc(Oc2ccc(Cl)cc2)c1 [Compound 482] | 1000 to 10000 | > 100 | 10 to 50 | > 100 |  |  | > 100 | 
Cc1c(Cl)cc(NCc2cccc(Oc3ccc(Cl)cc3)c2)c(O)c1Cl [Compound 498] |  |  |  |  |  | > 100 |  | 
Cc1c(Cl)cc(NCc2cccc(Oc3ccc(C(C)(C)C)cc3)c2)c(O)c1Cl [Compound 499] |  |  |  |  |  | > 100 |  | 
Cc1c(Cl)cc(NCc2c(F)cccc2Cl)c(O)c1Cl [Compound 512] | 10000 to 50000 | > 100 | 50 to 100 | > 100 |  |  | 10 to 50 | 
CCCCCCCCS(=O)(=O)Nc1cc(Cl)c(C)c(Cl)c1O [Compound 563] | 1000 to 10000 | > 100 | > 100 | > 100 | > 100 | > 100 |  | 
CCOC(=O)C(Cc1ccccc1)NC(=O)Nc1cc(Cl)c(C)c(Cl)c1O (centres unmarked) [Compound 593] | 1000 to 10000 |  |  |  |  |  |  | 
CC(C)(C)NC(=O)Nc1cc(NC(=O)NC2CCCCC2)cc(Cl)c1O [Compound 605] | < 1000 | > 100 | 10 to 50 | > 100 |  |  | 1 to 10 | 
O=C(NCCc1ccccc1)Nc1cc(Cl)c(O)c(NCc2ccccc2Sc2ccc(Cl)cc2)c1 [Compound 610] | < 1000 |  |  |  |  |  |  | 

Structure (SMILES) | IC50 (hPin1) [nM] | IC50 (hFKBP12) [µM] | IC50 (hCyp18) [µM] | IC50 (LpCyp18) [µM] | IC50 (EcParvulin) [µM] | IC50 (Papain) [µM] | IC50 (EcParvulin; [2]) [µM] | EC50 at 48 h [1] [µM]
CC(C)(C)NC(=O)Nc1cc(NC(=O)NCCc2ccccc2)cc(Cl)c1O [Compound 622] | < 1000 |  |  |  |  |  |  | 
CC(C)(C)NC(=O)Nc1cc(-c2nc3ccccc3s2)cc(Cl)c1O [Compound 636] | < 1000 |  |  |  |  |  |  | 
Oc1c(Cl)cc(-c2nc3ccccc3s2)cc1NC(=S)NCc1ccccc1 [Compound 637] | 1000 to 10000 |  |  |  |  |  |  | 
Oc1c(Cl)cc(-c2nc3ccccc3s2)cc1NC(=S)NCCc1ccccc1 [Compound 638] | 1000 to 10000 |  |  |  |  |  |  | 
CCCCCNC(=O)Nc1ccc(C)cc1O [Compound 643] | 10000 to 50000 | > 100 | > 100 | > 100 | > 100 | > 100 |  | 
Cc1c(Cl)cc(NC(=O)c2ccc(-c3ccccc3)cc2)c(O)c1Cl [Compound 644] |  |  |  |  |  | > 100 |  | 
Oc1c(Cl)cc(Cl)cc1NCc1ccco1 [Compound 647] | 1000 to 10000 | > 100 | > 100 | > 100 |  |  | > 100 | 
Cc1c(Cl)cc(NCc2ccccc2)c(O)c1Cl [Compound 655] | 10000 to 50000 | > 100 | > 100 | > 100 |  |  | 10 to 50 | 
Cc1c(Cl)cc(NC(=O)NCCc2nc3ccccc3[nH]2)c(O)c1Cl [Compound 656] | < 1000 |  |  |  |  |  |  | 
Oc1ccc(NCc2ccccc2Sc2ccc(Cl)cc2)c(O)c1 [Compound 672] |  |  | 1 to 10 | 10 to 50 |  |  |  | 
O=C(NCc1ccccc1)Nc1cc(Cl)c(O)c(Cl)c1 [Compound 700] | < 1000 | > 100 | > 100 | > 100 |  |  | 10 to 50 | 
O=C(Nc1cc(Cl)c(O)c(Cl)c1)NC1CCCCC1 [Compound 710] | < 1000 | > 100 | > 100 | > 100 | > 100 | > 100 |  | 
Cc1cccc(C)c1NC(=O)Nc1cc(Cl)c(O)c(Cl)c1 [Compound 716] | 1000 to 10000 | > 100 | > 100 | > 100 | 10 to 50 | > 100 |  | 
O=C(Nc1cc(Cl)c(O)c(Cl)c1)NC12CC3CC(CC(C3)C1)C2 [Compound 719] | < 1000 | > 100 | 50 to 100 | 10 to 50 |  |  |  | 
Oc1c(Cl)cc(NC(=S)Nc2ccccc2C(F)(F)F)cc1Cl [Compound 894] | < 1000 | > 100 | > 100 | > 100 |  |  | 1 to 10 | 
O=C(CCc1ccccc1)Nc1cc(Cl)c(O)c(Cl)c1 [Compound 1293] | 1000 to 10000 | > 100 | > 100 | > 100 |  |  | 10 to 50 | 
O=C(Cc1ccccc1[N+](=O)[O-])Nc1cc(Cl)c(O)c(Cl)c1 [Compound 1294] | < 1000 | > 100 | > 100 | > 100 |  |  | 1 to 10 | 
O=C(Cc1ccc2c(c1)OCO2)Nc1cc(Cl)c(O)c(Cl)c1 [Compound 1295] | 1000 to 10000 | > 100 | > 100 | > 100 |  |  | 1 to 10 | 
O=C(Nc1cc(Cl)c(O)c(Cl)c1)c1ccc2ccccc2c1 [Compound 1297] | < 1000 | > 100 | > 100 | > 100 |  |  | 10 to 50 | 50 to 100
O=C(Nc1cc(Cl)c(O)c(Cl)c1)c1ccccc1 [Compound 1298] | < 1000 | > 100 | > 100 | > 100 |  |  | 10 to 50 | 
O=C(Nc1cc(Cl)c(O)c(Cl)c1)c1ccco1 [Compound 1299] | < 1000 | > 100 | < 1 | > 100 |  |  | 10 to 50 | 
